Some results are limits rather than exact numbers.

T1 sequence (O75116 11-552): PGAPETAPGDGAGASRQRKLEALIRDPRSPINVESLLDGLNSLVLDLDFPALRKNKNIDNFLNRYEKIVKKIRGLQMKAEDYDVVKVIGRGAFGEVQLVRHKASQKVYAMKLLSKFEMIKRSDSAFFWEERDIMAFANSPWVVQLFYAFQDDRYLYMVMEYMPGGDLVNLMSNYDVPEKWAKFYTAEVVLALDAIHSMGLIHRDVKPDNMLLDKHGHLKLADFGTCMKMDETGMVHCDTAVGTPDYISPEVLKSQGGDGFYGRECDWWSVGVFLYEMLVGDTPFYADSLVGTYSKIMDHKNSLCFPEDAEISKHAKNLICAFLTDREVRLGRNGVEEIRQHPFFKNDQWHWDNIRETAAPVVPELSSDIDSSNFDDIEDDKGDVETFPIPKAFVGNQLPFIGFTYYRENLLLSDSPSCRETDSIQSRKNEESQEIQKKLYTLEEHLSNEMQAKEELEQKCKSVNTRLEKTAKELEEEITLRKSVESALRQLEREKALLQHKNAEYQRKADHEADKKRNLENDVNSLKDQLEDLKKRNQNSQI

This assay addresses T1, human recombinant ROCK II (Homo sapiens, UniProt O75116).
T1 construct: recombinant human ROCK-II residues 11-552; His6 (N); purchased Millipore GmbH, Schwalbach, Germany
The assay can be described thus: Determination of Rho kinase inhibition (ROCK II, Caliper peptide phosphorylation assay). Conditions: respective form (salt or free base) as obtained in the examples, 60 min at 32° C. In kind it is biochemical. As to the method:
To measure Rho-kinase inhibition, IC50 values were determined according to the following protocol:
Active human recombinant ROCK II (N-terminal His6-tagged recombinant human ROCK-II residues 11-552) was purchased from Millipore GmbH, Schwalbach, Germany. The peptide substrate, Fluorescein-[…]-COOH, was obtained from JPT Peptide Technologies, Berlin, Germany. Adenosine-5′-triphosphate (ATP), bovine serum albumine (BSA), dimethylsulphoxide (DMSO), 4-(2-hydroxyethyl)piperazine-1-ethanesulfonic acid (Hepes), Brij-35, dithiothreitol (DTT) and Pluronic F-68 were purchased from Sigma-Aldrich, Munich, Germany. Tris(hydroxymethyl)-aminomethane (Tris), magnesium chloride, NaOH, 1M HCl and EDTA were obtained from Merck Biosciences, Darmstadt, Germany. “Complete” protease inhibitor was from Roche Diagnostics, Mannheim, Germany. Test compounds were diluted to the appropriate concentrations in buffer 1 (25 mM Tris-HCl, pH 7.4, 5 mM MgCl2, 2 mM DTT, 0.02% (w/v) BSA, 0.01% Pluronic F-68 and 3% DMSO). The ROCK II enzyme was diluted to a concentration of 100 ng/mL in buffer 2 (25 mM Tris-HCl, pH 7.4, 5 mM MgCl2, 2 mM DTT and 0.02% (w/v) BSA). The peptide substrate and ATP were diluted to concentrations of 3 μM and 120 μM, respectively, in the buffer 2. Two μl of the compound solution were mixed with 2 μl of the diluted enzyme in a 384-well small volume microtiter plate (Greiner, Bio-One, Frickenhausen, Germany), and the kinase reaction was initiated by addition of 2 μl of the solution containing peptide substrate and ATP. After 60 min incubation at 32° C., the reaction was stopped by addition of 20 μl of a solution containing 100 mM Hepes-NaOH, pH 7.4, 0.015% (v/v) Brij-35, 45 mM EDTA and 0.227% chip coating reagent 1 (Caliper Lifescience Inc, Hopkinton, Mass.). Phosphorylation of the substrate peptide was then detected on a Caliper 3000 instrument essentially as described by Pommereau et al (J. Biomol. Screening 2004, 9(5), 409-416). Separation conditions were as follows: Pressure −1.3 psi, upstream voltage −1562 V, downstream voltage −500 V, sample sip time 200 ms. Positive controls (buffer 1 instead of compound) and negative controls (buffer 1 instead of compound and buffer 2 instead of ROCK II) were run in parallel on each plate.
The following products/compounds were tested in said assay by using the respective form (salt or free base) obtained as in the examples described above and the following activities were measured
One may read the IC50 as the midpoint of a concentration-inhibition curve. With `CC[C@]1(C(C)N)CC[C@@H](Oc2c(F)cc3c(=O)[nH]ccc3c2C)CC1` (stereo partly drawn) [Example 79, cis-6-[4-(1-Amino-ethyl)-4-ethyl-cyclohexyloxy]-7-fluoro-5-methyl-2H-isoquinolin-1-one], the IC50 was 100 to 1000 nM. On the same count and under the same terms, as for `CCC(N)C1(C(F)(F)F)CCC(Oc2cc3cc[nH]c(=O)c3cc2Cl)CC1` (single isomer, unassigned) [Example 104, 6-[4-(1-Amino-propyl)-4-trifluoromethyl-cyclohexyloxy]-7-chloro-2H-isoquinolin-1-one], the figure is 100 to 1000 nM; as for `CCCCNC(CC)[C@]1(CC)CC[C@H](Oc2cc3cc[nH]c(=O)c3cc2Cl)CC1` (stereo partly drawn) [Example 88, cis-6-[4-(1-Butylamino-propyl)-4-ethyl-cyclohexyloxy]-7-chloro-2H-isoquinolin-1-one], 100 to 1000 nM. As to `CC[C@]1(C(C)N)CC[C@@H](Oc2ccc3cnccc3c2Cl)CC1` (stereo partly drawn) [Example 84, cis-1-[4-(5-Chloro-isoquinolin-6-yloxy)-1-ethyl-cyclohexyl]-ethylamine], the IC50 is 100 to 1000 nM. In the case of `NC(C(F)(F)F)C1(CC2CC2)CCC(Oc2cc3cc[nH]c(=O)c3cc2Cl)CC1` (single isomer, unassigned) [Example 40, 6-[4-(1-Amino-2,2,2-trifluoro-ethyl)-4-cyclo-propylmethyl-cyclohexyloxy]-7-chloro-2H-isoquinolin-1-one], the IC50 was 100 to 1000 nM. For the compound `CCC(NCc1ccccc1)C1(CC)CCC(Oc2cc3cc[nH]c(=O)c3cc2Cl)CC1` (stereo not drawn) [Example 86, cis-6-[4-(1-Benzylamino-propyl)-4-ethyl-cyclohexyloxy]-7-chloro-2H-isoquinolin-1-one], the pIC50 entry is given as “+++++ (6.0 ≦ pIC50 < 7.0)”. In the case of `CCOC1(C(N)CC)CCC(Oc2cc3cc[nH]c(=O)c3cc2Cl)CC1` (mixture of isomers) [Example 60, 6-[4-(1-Amino-propyl)-4-ethoxy-cyclohexyloxy]-7-chloro-2H-isoquinolin-1-one], the IC50 was 10 to 100 nM. The same measure, in the same setting: in the case of `CC[C@]1(C(C)N)CC[C@@H](Oc2c(F)cc3cnccc3c2C)CC1` (stereo partly drawn) [Example 80, cis-1-[1-Ethyl-4-(7-fluoro-5-methyl-isoquinolin-6-yloxy)-cyclohexyl]-ethylamine] it was 100 to 1000 nM; in that of `CCC(N)[C@]1(CC)CC[C@H](Oc2c(F)cc3cnccc3c2C)CC1` (stereo partly drawn) [Example 57, cis-1-[1-Ethyl-4-(7-fluoro-5-methyl-isoquinolin-6-yloxy)-cyclohexyl]-propylamine], 100 to 1000 nM. In the case of `CCCC[C@]1(C(N)CC)CC[C@@H](Oc2cc3c(Cc4ccccc4)c[nH]c(=O)c3cc2Cl)CC1` (stereo partly drawn) [Example 39, cis-6-[4-(1-Amino-propyl)-4-butyl-cyclohexyloxy]-4-benzyl-7-chloro-2H-isoquinolin-1-one], the IC50 was 100 to 1000 nM. On the same count and under the same terms, in the case of `CC[C@]1(C(C)N)CC[C@@H](Oc2cc3ccncc3cc2Br)CC1` (stereo partly drawn) [Example 82, cis-1-[4-(7-Bromo-isoquinolin-6-yloxy)-1-ethyl-cyclohexyl]-ethylamine] it was 100 to 1000 nM.

For `CCC(N)[C@]1(CC)CC[C@H](Oc2cc3ccncc3cc2C)CC1` (stereo partly drawn) [Example 56, cis-1-[1-Ethyl-4-(7-methyl-isoquinolin-6-yloxy)-cyclohexyl]-propylamine], the IC50 was 100 to 1000 nM. Same read-out and setting: in the case of `CC(C)C1(C(N)c2nccs2)CCC(Oc2cc3cc[nH]c(=O)c3cc2Cl)CC1` (single isomer, unassigned) [Example 46, 6-[4-(Amino-thiazol-2-yl-methyl)-4-isopropyl-cyclohexyl-oxy]-7-chloro-2H-isoquinolin-1-one] it was 100 to 1000 nM. On the same count and under the same terms, as for `CCC(N)[C@]1(CC2CCOCC2)CC[C@H](Oc2cc3cc[nH]c(=O)c3cc2Cl)CC1` (stereo partly drawn) [Example 67, cis-6-[4-(1-Amino-propyl)-4-(tetrahydro-pyran-4-ylmethyl)-cyclohexyloxy]-7-chloro-2H-isoquinolin-1-one], the figure is 10 to 100 nM. The same measure, in the same setting: in the case of `CCC(N)C1(C2CCOCC2)CCC(Oc2cc3cc[nH]c(=O)c3cc2Cl)CC1` (single isomer, unassigned) [Example 105] it was 10 to 100 nM; in that of `CCC(N)C1(CC(C)C)CCC(Oc2cc3cc[nH]c(=O)c3cc2Cl)CC1` (single isomer, unassigned) [Example 29, 6-[4-(1-Amino-propyl)-4-isobutyl-cyclohexyloxy]-7-chloro-2H-isoquinoIin-1-one], 10 to 100 nM; in that of `CCOC[C@]1(C(N)CC)CC[C@@H](Oc2cc3cc[nH]c(=O)c3cc2Cl)CC1` (stereo partly drawn) [Example 71, cis-6-[4-(1-Amino-propyl)-4-ethoxymethyl-cyclohexyloxy]-7-chloro-2H-isoquinolin-1-one], at most 10 nM. As for `CC(C)C(N)C1(C(C)C)CCC(Oc2cc3cc[nH]c(=O)c3cc2Cl)CC1` (stereo not drawn) [Example 89, 6-[4-(1-Amino-2-methyl-propyl)-4-isopropyl-cyclohexyloxy]-7-chloro-2H-isoquinolin-1-one], the IC50 is 100 to 1000 nM. The same measure, in the same setting: as for `CCC[C@]1(C(C)N)CC[C@@H](Oc2cc3ccnc(N)c3cc2Cl)CC1` (stereo partly drawn) [Example 100, cis-6-[4-(1-Amino-ethyl)-4-propyl-cyclohexyloxy]-7-chloro-isoquinolin-1-ylamine], the figure is 100 to 1000 nM; as for `CCC(NCC(C)C)[C@]1(CC)CC[C@H](Oc2cc3cc[nH]c(=O)c3cc2Cl)CC1` (stereo partly drawn) [Example 87, cis-7-Chloro-6-[4-ethyl-4-(1-isobutylamino-propyl)-cyclohexyloxy]-2H-isoquinolin-1-one], 100 to 1000 nM; as for `CCC(N)[C@]1(CC)CC[C@H](Oc2c(F)cc3c(=O)[nH]ccc3c2C)CC1` (stereo partly drawn) [Example 51, cis-6-[4-(1-Amino-propyl)-4-ethyl-cyclohexyloxy]-7-fluoro-5-methyl-2H-isoquinolin-1-one], 100 to 1000 nM.

For `CCC(NCC1CC1)[C@]1(CC)CC[C@H](Oc2cc3cc[nH]c(=O)c3cc2Cl)CC1` (stereo partly drawn) [Example 85, cis-7-Chloro-6-{4-[1-(cyclopropylmethyl-amino)-propyl]-4-ethyl-cyclohexyloxy}-2H-isoquinolin-1-one], the IC50 is 100 to 1000 nM. Same read-out and setting: in the case of `CCC(N)[C@]1(C)CC[C@H](Oc2cc3cc[nH]c(=O)c3cc2Cl)CC1` (mixture of isomers) [Example 26, cis-6-[4-(1-Amino-propyl)-4-methyl-cyclohexyloxy]-7-chloro-2H-isoquinolin-1-one] it was at most 10 nM; in that of `CC[C@]1(C(C)N)CC[C@@H](Oc2cc3c(Cc4ccccc4)c[nH]c(=O)c3cc2Cl)CC1` (stereo partly drawn) [Example 81, cis-6-[4-(1-Amino-ethyl)-4-ethyl-cyclohexyloxy]-4-benzyl-7-chloro-2H-isoquinolin-1-one], 100 to 1000 nM. Same read-out and setting: in the case of `CCC(N)[C@]1(CC)CC[C@H](Oc2c(C)cc3cnccc3c2C)CC1` (stereo partly drawn) [Example 53, cis-1-[4-(5,7-Dimethyl-isoquinolin-6-yloxy)-1-ethyl-cyclohexyl]-propylamine] it was 100 to 1000 nM; in that of `CCC(N)[C@]1(CCCC(F)(F)F)CC[C@H](Oc2cc3cc[nH]c(=O)c3cc2Cl)CC1` (stereo partly drawn) [Example 66, cis-6-[4-(1-Amino-propyl)-4-(4,4,4-trifluoro-butyl)-cyclohexyloxy]-7-chloro-2H-isoquinolin-1-one], at most 10 nM; in that of `NC(c1ccccc1)[C@]1(CC2CC2)CC[C@H](Oc2cc3cc[nH]c(=O)c3cc2Cl)CC1` (stereo partly drawn) [Example 63, cis-6-[4-(Amino-phenyl-methyl)-4-cyclopropylmethyl-cyclohexyloxy]-7-chloro-2H-isoquinolin-1-one], 100 to 1000 nM.

As to `CCC1(C(N)CCOC)CCC(Oc2cc3cc[nH]c(=O)c3cc2Cl)CC1` (single isomer, unassigned) [Example 98, 6-[4-(1-amino-3-methoxy-propyl)-4-ethyl-cyclohexyloxy]-7-chloro-2H-isoquinolin-1-one], the IC50 was 10 to 100 nM.

Turning to `CCC(N)C1(COC(C)C)CCC(Oc2cc3cc[nH]c(=O)c3cc2Cl)CC1` (single isomer, unassigned) [Example 20, 6-[4-(1-Amino-propyl)-4-isopropoxymethyl-cyclohexyloxy]-7-chloro-2H-isoquinolin-1-one], the IC50 was 100 to 1000 nM. Take `CCC(N)C1(C2CCCC2)CCC(Oc2cc3cc[nH]c(=O)c3cc2Cl)CC1` (single isomer, unassigned) [Example 24, 6-[4-(1-Amino-propyl)-4-cyclopentyl-cyclohexyloxy]-7-chloro-2H-isoquinolin-1-one]: the IC50 is 10 to 100 nM.

The values are drawn from US8399482B2, “6-substituted isoquinolines and isoquinolinones” (Sanofi, priority 2008, dated 2013).
